# Columns and labels:
# ID8 = test: Cytotoxicity in ID8 murine ovarian cancer cells (24 h); format: cell-based; conditions: ID8, 24 h; read-out: In vitro activity (IC50)
# Protocol: Murine ovarian cancer cell lines (ID8, IG10, IF5, and 2Cl2) were grown in RPMI 1640 media with 10% Fetal Bovine Serum. Cells were typically seeded (3000 cells per well) into 96 well plates and media was replaced after 48 hours of incubation. […] Phor18-LHRH was provided in lyophilized form was dissolved in saline and added to cells. The duration of incubation was 24 h at 37° C. Cell viability was assessed after 24 hours using a luminometric assays (Promega, CellTiter-0Glo 2.0, G9243). Controls contained saline or 0.1% triton as reference for 0 and 100% cell death, respectively.
# Data were processed and analyzed using GraphPad Prism version 7.00 for Windows (GraphPad Software, San Diego California). Statistical analysis for significance was determined by a two-tailed Student's T-test. Each study was conducted to achieve an […] of at least 6.
# In vitro activities were expressed as IC50 values for each cell line, time point and compound tested that were calculated using the Hill equation (Graph Pad Prizm software).
# [1] = tested on: murine ovarian cancer cells; test: EP-100 cytotoxicity and LHRH-R specificity in murine ovarian cancer cells; format: cell-based; conditions: ID8 cells, EP-100, 24 hr
# Text: To identify the direct effects of EP-100 on cancer cells, murine ovarian cancer cell lines were used for in vitro experiments. […] The level of expression of LHRH-R in murine ovarian cancer cells using RT-PCR and Western blot analysis. […] Indeed, LHRH-R was expressed mainly on the membrane of cancer cells (FIGS. 14D and 14E). Human SKOV3ipl ovarian cancer cells and immortalized murine 3T3 fibroblasts were used as negative controls.
# To determine whether the antitumor EP-100 efficacy was specific to LHRH-R expression, we silenced LHRH-R using siRNA (FIG. 15A). […].
# immune cells in ascites = test: Immune cell profiling (FACS) of ID8 ascites; format: in vivo, C57BL/6 mice
# Protocol: (§1) Immune Profiling Assay—Immunophenotypic analyses of splenocytes and single cell suspensions from tumors were assessed by flow cytometry. Abs to stain for MDSCs were CD11b-APC (clone M1/70; BD Biosciences), Ly6G-FITC (clone 1A8; BD Biosciences) and Ly6C-PE (clone AL-21; BD Biosciences). For T-cell activation markers, cells were stained with Ab specific for CD4-PE-Cy7 (clone RM4-5; BD Biosciences), CD8-PE-Cy7 (clone 53-6.7; BD Biosciences), CD62L-PE (clone MEL-14; BD Biosciences) and CD44-FITC (clone IM7; Biolegend). Cells were incubated on ice for 30 min, washed and fixed in phosphate buffered saline (PBS) containing 1% formalin for flow cytometric analysis on an LSRII flow cytometer (BD Biosciences).
# (§2) Immune cell profiling was conducted on ascites (N=3) and tumor tissue (N=3) by processing the samples by the following method and analyzed through Fluorescent Activated Cell Sorting (FACS), see Table 8. Cells were incubated for 30 minutes on ice, washed and fixed in phosphate buffered saline containing 1% formalin for flow cytometric analysis on an LSRII flow cytometer.
# [2] = tested on: IG10 murine ovarian carcinoma; test: Orthotopic IG10 murine ovarian carcinoma syngeneic model; format: in vivo, C57BL/6 mice
# Protocol: C57BL/6 female mice were injected orthotopically with luciferase labeled IG10 murine ovarian cancer cell line (1x10^6 cells). Mice were monitored for tumor take using a luminescent imaging system. […] Each treatment and control group consisted of 10 mice. At necropsy on day 28, ascites fluids were removed and measured, and tumors were removed and weighed.
# Significance between treatment groups was assessed using Wilcoxon signed Rank test analysis and ANOVA.
# immune cells in tumor = test: Immune cell profiling (FACS) of ID8 tumors; format: in vivo, C57BL/6 mice
# Protocol: as §1, §2
# MDA-MB-435 cells = test: Fluorescence microscopy of MDA-MB-435 cells; format: cell-based, human; conditions: 10 μM, 5 minutes exposure
# Protocol: In brief, human melanoma cells (MDA-MB-435, passage #252) were seeded onto culture dishes. The following markers were introduced prior to adding EP-100; DRAQ5™(Alexis Corporation)—blue—was used for staining of the nucleus and Mito Tracker® Red CMXRos (M7512) (Molecular Probes, Inc. OR) were applied for visualizing intact mitochondria. Cell membranes were stained with wheat germ alexa fluor green conjugates (Molecular Probes, Inc. OR).
# Cells were loaded first with Mitotracker dye, according to the manufacturer's recommendation. Phor 18-LHRH (338613) reconstituted in saline was added at a final concentration of 10 μM and incubated for 5-10 minutes. Culture dishes with saline only served as controls. The supernatant was removed, and the remaining cells prepared for fluorescence microscopy imaging.
# PD-L1 = PD-L1 expression in ID8 and IG10 cells after EP-100 (RT-PCR, Western blot); format: cell-based, murine
# Protocol: To determine the potential role of EP-100 in immune activation, the effect on PD-L1 expression in murine ovarian cancer cells was determined in the presence of EP-100. […] PD-L1 mRNA was increased with treatment with as low as 0.5 μm EP-100 for 4 hours, and PD- L1 protein was increased after 6 hours of treatment.
sequence,measurement,setting,value
KFAKFAKKFAKFAKKFAKQHWSYGLRPG [Phor18-LHRH],IC50,ID8,1370 nM
same,viability of cells in which LHRH-R was silenced (siRNA),[1],remained viable
same,increase of CD8+ T/Treg ratio,immune cells in ascites,7 fold
same,Monocytic myeloid suppressor cells (mMDSC),"immune cells in ascites; % of CD45+ cells, controls 0.62±0.08%",0.21±0.01%
same,CD8+ T cells,"immune cells in ascites; % of CD45+ cells, controls 1.9±0.3%",8.9±2.4%
same,B cells,"immune cells in ascites; % of CD45+ cells, controls 9.8±1.8%",1.5±0.14%
same,Natural killer (NK) cells,"immune cells in ascites; % of CD45+ cells, controls 10.3±0.8%",10.2±0.08%
same,Dendritic cells (DC),"immune cells in ascites; % of CD45+ cells, controls 18.5±1.1%",15.1±0.2%
same,Macrophages,"immune cells in ascites; % of CD45+ cells, controls 23.8±5.1%",25.6±0.7%
same,CD45+ cell fraction of life cells,"immune cells in ascites; Mean±SEM, controls 10.5±1.8%",15.6±2.1%
same,ratio of CD8+ T cells to regulatory T cells,immune cells in ascites; controls 2.6±0.6,17.32±4.1
same,relative reduction of ascites volumes,[2],60.2%
same,tumor weights at necropsy,"[2]; Mean±SEM, N=10, controls 1.04±0.09 g",0.45 ± 0.08 g
same,ascites volumes,"[2]; Mean±SEM, N=10, vehicle 9.06±1.3 ml",3.6 ± 0.7 mL
same,increase of CD8+ T/Treg ratio,immune cells in tumor; tumor (tumor and ascites),8 fold
same,Regulatory T cells (Treg),"immune cells in tumor; tumor, % of CD45+ cells, controls 1.14±0.09%",0.95±0.15%
same,Monocytic myeloid suppressor cells (mMDSC),"immune cells in tumor; tumor, % of CD45+ cells, controls 1.5±0.006%",1.015±0.15%
same,Macrophages,"immune cells in tumor; tumor, % of CD45+ cells, controls 1.6±0.05%",10.1±0.13%
same,Dendritic cells (DC),"immune cells in tumor; tumor, % of CD45+ cells, controls 1.88±0.03%",5.12±0.34%
same,CD8+ T cells,"immune cells in tumor; tumor, % of CD45+ cells, controls 2.6±0.4%",15.5±0.8%
same,Natural killer (NK) cells,"immune cells in tumor; tumor, % of CD45+ cells, controls 3.76±[…]",10.67±1.4%
same,B cells,"immune cells in tumor; tumor, % of CD45+ cells, controls 12.14±0.9%",10.1±2.4%
same,CD45+ cell fraction of live cells,"immune cells in tumor; tumor, Mean±SEM, controls 8.16±[…]",26.1±5.2%
same,ratio of CD8+ T cells to regulatory T cells,"immune cells in tumor; tumor, controls 2.27±0.26",15.5±2.5
same,"plasma membrane, fluorescence microscopy",MDA-MB-435 cells,disintegration of the plasma membrane
same,lowest concentration increasing PD-L1 mRNA,PD-L1; 4 hours,0.5 μm
same,PD-L1 mRNA and protein levels,"PD-L1; ID8 and IG10 cells, protein after 6 hours",both PD-L1 mRNA and protein levels were increased

# From patent publication US20240228542A1, “LYTIC DOMAIN FUSION CONSTRUCTS, CHECKPOINT INHIBITORS, AND METHODS OF MAKING AND USING SAME” (A28 Therapeutics Inc., priority 2020, published 2024)
